Results reported in ChEMBL document CHEMBL6109167, “Novel PARP7 Inhibitors for Treating Cancer” (ACS Med Chem Lett, 2025).

Biological target: T1, Protein mono-ADP-ribosyltransferase TIPARP (Homo sapiens, UniProt Q7Z3E1)
T1 sequence (Q7Z3E1 whole entry): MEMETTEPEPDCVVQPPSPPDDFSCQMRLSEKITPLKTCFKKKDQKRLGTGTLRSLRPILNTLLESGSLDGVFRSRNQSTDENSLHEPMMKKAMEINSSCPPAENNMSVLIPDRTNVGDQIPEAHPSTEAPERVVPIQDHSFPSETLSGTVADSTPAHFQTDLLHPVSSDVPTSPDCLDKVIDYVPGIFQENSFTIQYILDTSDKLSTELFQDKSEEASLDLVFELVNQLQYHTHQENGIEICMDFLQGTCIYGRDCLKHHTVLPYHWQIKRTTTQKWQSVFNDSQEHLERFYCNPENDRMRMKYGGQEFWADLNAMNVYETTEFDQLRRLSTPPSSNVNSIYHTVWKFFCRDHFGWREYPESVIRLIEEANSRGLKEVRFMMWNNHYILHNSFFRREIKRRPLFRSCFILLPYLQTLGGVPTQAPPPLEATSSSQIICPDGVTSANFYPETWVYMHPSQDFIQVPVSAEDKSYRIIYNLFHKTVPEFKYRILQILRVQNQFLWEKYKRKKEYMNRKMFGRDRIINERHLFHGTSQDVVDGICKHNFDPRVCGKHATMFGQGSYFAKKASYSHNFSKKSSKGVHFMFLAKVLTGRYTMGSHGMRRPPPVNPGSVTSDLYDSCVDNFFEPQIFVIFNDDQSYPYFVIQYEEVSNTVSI
Experiment: Inhibition of PARP7 in human NCI-H1373 cells assessed as increase in STAT1 phosphorylation at Tyr701 incubated for 48 hrs by LANCE Ultra sandwich assay
Type: cell-based

Row | Structure (SMILES) | EC50 [nM]
1 | C[C@@H](C[C@@H](F)Cn1ccc2cc(-c3ncc(C(C)(F)F)cn3)c(F)c(F)c2c1=O)Oc1cn[nH]c(=O)c1C(F)(F)F | 0.667
2 | C[C@@H](C[C@H](F)Cn1cc(F)c2cc(-c3ncc(C(F)F)c(N)n3)c(F)cc2c1=O)Oc1cn[nH]c(=O)c1C(F)(F)F | 0.42
3 | COc1cnc(-c2cc3ccn(C[C@H](F)C[C@H](C)Oc4cn[nH]c(=O)c4C(F)(F)F)c(=O)c3c(F)c2F)nc1 | 0.375

The remaining compounds from weak to strong by EC50, led by results:

Row | EC50 [nM] | Structure (SMILES)
4 | 0.786 | C[C@@H](C[C@H](F)Cn1ccc2cc(-c3ncc(C(F)F)c(N)n3)c(F)cc2c1=O)Oc1cn[nH]c(=O)c1C(F)(F)F
5 | 0.62 | C[C@@H](C[C@@H](F)Cn1ccc2cc(-c3ncc(Cl)cn3)c(F)c(F)c2c1=O)Oc1cn[nH]c(=O)c1C(F)(F)F
6 | 0.46 | C[C@@H](C[C@@H](F)Cn1ccc2cc(-c3ncc(C(F)F)cn3)c(F)c(F)c2c1=O)Oc1cn[nH]c(=O)c1C(F)(F)F
